The values that follow come from PubChem BioAssay (NCI).

Some test systems named below: HOP-62 NSCLC; RPMI-8226 leukemia; SF-268 CNS; CAKI-1 renal; BT-549 breast; SF-539 CNS; UACC-257 melanoma; EKVX NSCLC; U251 CNS; HCT-116 colon.
What all share (assay): NCI tumour cell line growth inhibition, 48 h

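Protocol summary: plate cells (96-well), add compound at 5 concentrations, incubate 48 h, interpolate endpoints linearly. Definition used: TGI = concentration required for complete inhibition of growth.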

As to `NNC(=O)Cn1c2ccc(Br)cc2c2nc3ccccc3nc21`, the TGI in the experiment with HOP-62 NSCLC is 89.8 µM; in the experiment on RPMI-8226 leukemia, more than 100 µM; with SF-268 CNS, more than 100 µM; with CAKI-1 renal, more than 100 µM; with BT-549 breast, more than 100 µM; with SF-539 CNS, more than 100 µM. In addition, the TGI in the experiment with UACC-257 melanoma, in the experiment with EKVX NSCLC and with U251 CNS was more than 100 µM throughout.
Take `Cc1ccc2c(c1C)C(=O)/C(=C/c1ccccc1C(=O)O)C2`: the TGI with HOP-62 NSCLC, with RPMI-8226 leukemia, with SF-268 CNS, in the experiment on CAKI-1 renal, in the experiment with BT-549 breast and with SF-539 CNS was more than 100 µM each time. Moreover, the TGI in the experiment with UACC-257 melanoma, with EKVX NSCLC, in the experiment on U251 CNS and in the experiment on HCT-116 colon was more than 100 µM throughout.
Turning to `CC(C)C(OC(=O)c1ccc(NCc2cc(O)ccc2O)cc1)C(C)C`, the TGI was 21.7 µM in the experiment on HOP-62 NSCLC; 0.931 µM with RPMI-8226 leukemia; 5.3 µM with SF-268 CNS; 0.701 µM in the experiment on CAKI-1 renal; 2.23 µM with BT-549 breast; 2.47 µM with SF-539 CNS. In addition, the TGI with UACC-257 melanoma was 3.83 µM; in the experiment on EKVX NSCLC, 5.32 µM; in the experiment with U251 CNS, 2.85 µM; in the experiment with HCT-116 colon, 14 µM.
Take `CCOC(=O)c1cc2c(C(=O)c3ccc([N+](=O)[O-])cc3)c(C(C)=O)ccc2[nH]1`: the TGI was 18.4 µM with HOP-62 NSCLC; more than 100 µM with RPMI-8226 leukemia; 38.9 µM with SF-268 CNS; more than 100 µM with CAKI-1 renal; more than 100 µM in the experiment on BT-549 breast; more than 100 µM with SF-539 CNS. For the same compound, the TGI is more than 100 µM with UACC-257 melanoma, more than 100 µM with EKVX NSCLC, 32.3 µM in the experiment with U251 CNS and more than 100 µM in the experiment on HCT-116 colon.
For `O=C(Nc1nc2ccccc2s1)c1cc([N+](=O)[O-])ccc1Cl`, the TGI in the experiment with HOP-62 NSCLC is more than 100 µM; in the experiment on RPMI-8226 leukemia it was more than 100 µM; in the experiment with SF-268 CNS it was 62 µM; with CAKI-1 renal, more than 100 µM; in the experiment on BT-549 breast it was more than 30.9 µM; in the experiment with SF-539 CNS, 28.5 µM. Also, the TGI in the experiment on UACC-257 melanoma was more than 100 µM; in the experiment with EKVX NSCLC, more than 100 µM; in the experiment with U251 CNS it was more than 91.6 µM; in the experiment with HCT-116 colon, more than 100 µM.
Turning to `CCCCCCCCCCCCCCCCCCNc1ccn(C2OC(COP(=O)(O)OCC3OC(n4cc(F)c(NCCCCCCCCCCCCCCCCCC)nc4=O)CC3O)C(O)C2O)c(=O)n1` (configuration not stated), the TGI with HOP-62 NSCLC, in the experiment with RPMI-8226 leukemia, in the experiment with SF-268 CNS, in the experiment on CAKI-1 renal, with BT-549 breast and in the experiment with SF-539 CNS was more than 100 µM throughout. For the same compound, the TGI in the experiment with UACC-257 melanoma, in the experiment with EKVX NSCLC, in the experiment with U251 CNS and in the experiment on HCT-116 colon was more than 100 µM in each case.
In the case of `CC1=NN(c2nc(N)nc(/C(C#N)=C/c3cccn3-c3cc(Cl)cc(Cl)c3)n2)C(C)(C)C1`, the TGI in the experiment on HOP-62 NSCLC is 67.3 µM; in the experiment with RPMI-8226 leukemia it was more than 100 µM; in the experiment on SF-268 CNS, more than 100 µM; in the experiment on CAKI-1 renal it was more than 100 µM; in the experiment with BT-549 breast, more than 100 µM; with SF-539 CNS, more than 100 µM. Further, the TGI in the experiment with UACC-257 melanoma is more than 100 µM; with EKVX NSCLC it was more than 100 µM; in the experiment with U251 CNS, 28.3 µM; in the experiment on HCT-116 colon, more than 100 µM.
Consider `C(CCCCc1nnc(N2CCCCC2)o1)CCCc1nnc(N2CCCCC2)o1`, for which the TGI in the experiment on HOP-62 NSCLC, with SF-268 CNS, with CAKI-1 renal, in the experiment with BT-549 breast, with SF-539 CNS and with UACC-257 melanoma was more than 100 µM throughout. Besides, the TGI in the experiment on EKVX NSCLC, in the experiment on U251 CNS and with HCT-116 colon was more than 100 µM each time.
`COc1ccc(C)cc1Nc1nnc(-c2ccccc2N)s1`: the TGI with HOP-62 NSCLC was more than 100 µM; with RPMI-8226 leukemia it was 53.4 µM; with SF-268 CNS it was more than 100 µM; in the experiment with CAKI-1 renal, more than 100 µM; in the experiment with BT-549 breast, more than 100 µM; in the experiment on SF-539 CNS, more than 100 µM. Further, the TGI was more than 100 µM in the experiment with UACC-257 melanoma, 90.5 µM with EKVX NSCLC and more than 100 µM in the experiment on HCT-116 colon.
In the case of `CC(=O)Nc1ccc(OC2=CCN(C)CC2)cc1`, the TGI in the experiment on HOP-62 NSCLC, in the experiment on RPMI-8226 leukemia, in the experiment with SF-268 CNS, with CAKI-1 renal, with BT-549 breast and in the experiment with UACC-257 melanoma was more than 100 µM each time. The TGI with EKVX NSCLC, in the experiment with U251 CNS and in the experiment on HCT-116 colon was more than 100 µM each time.
With `CCOC(=O)c1cc2c3c(c(C(C)=O)c(O)c2[nH]1)N(CC(C)CC)CC3` (configuration not stated), the TGI in the experiment with RPMI-8226 leukemia, in the experiment on SF-268 CNS, in the experiment with CAKI-1 renal, with BT-549 breast, in the experiment on SF-539 CNS and in the experiment on UACC-257 melanoma was more than 100 µM throughout. For the same compound, the TGI in the experiment with EKVX NSCLC, in the experiment on U251 CNS and in the experiment on HCT-116 colon was more than 100 µM in each case.
On to `COC1OC2COC1(OC)C1OC(C)(C)OC21` (configuration not stated), for which the TGI in the experiment on HOP-62 NSCLC, in the experiment on RPMI-8226 leukemia, in the experiment on SF-268 CNS, in the experiment on CAKI-1 renal, in the experiment on BT-549 breast and with UACC-257 melanoma was more than 100 µM in each case. Moreover, the TGI in the experiment on EKVX NSCLC, in the experiment on U251 CNS and in the experiment with HCT-116 colon was more than 100 µM in each case.
`CCN(C(=S)N[C@H](C(=O)N[C@@H](C)C(=O)OC)C(C)C)c1ccccc1`: the TGI with HOP-62 NSCLC is more than 100 µM; in the experiment with RPMI-8226 leukemia, more than 100 µM; in the experiment with CAKI-1 renal, more than 100 µM; with BT-549 breast, more than 100 µM; with SF-539 CNS it was 84.3 µM; with UACC-257 melanoma it was more than 100 µM. Besides, the TGI with EKVX NSCLC, in the experiment on U251 CNS and in the experiment on HCT-116 colon was more than 100 µM each time.
On to `COc1ccc(NC(C)=O)cc1N1C(=O)/C(=C\c2cc(OC)c(OC)c(OC)c2)SC1c1ccccc1` (configuration not stated), for which the TGI is more than 100 µM with HOP-62 NSCLC; more than 100 µM in the experiment with RPMI-8226 leukemia; 60.2 µM in the experiment on CAKI-1 renal; more than 100 µM with BT-549 breast; more than 100 µM in the experiment with SF-539 CNS; more than 100 µM in the experiment on UACC-257 melanoma. Also, the TGI with EKVX NSCLC, with U251 CNS and in the experiment with HCT-116 colon was more than 100 µM each time.
